Data on 13 compounds can be found in ChEMBL document CHEMBL1137428, “Synthesis and monoamine transporter binding properties of 2,3-cyclo analogues of 3beta-(4'-aminophenyl)-2beta-tropanemethanol” (J Med Chem, 2006).

The target in experiment [1] is Sodium-dependent noradrenaline transporter (Homo sapiens, UniProt P23975). Put plainly: Displacement of [3H]nisoxetine from human NET. A general note: Displacement assays read how much labelled ligand stays bound in the presence of the test substance.
Chain of Sodium-dependent noradrenaline transporter (P23975 whole entry): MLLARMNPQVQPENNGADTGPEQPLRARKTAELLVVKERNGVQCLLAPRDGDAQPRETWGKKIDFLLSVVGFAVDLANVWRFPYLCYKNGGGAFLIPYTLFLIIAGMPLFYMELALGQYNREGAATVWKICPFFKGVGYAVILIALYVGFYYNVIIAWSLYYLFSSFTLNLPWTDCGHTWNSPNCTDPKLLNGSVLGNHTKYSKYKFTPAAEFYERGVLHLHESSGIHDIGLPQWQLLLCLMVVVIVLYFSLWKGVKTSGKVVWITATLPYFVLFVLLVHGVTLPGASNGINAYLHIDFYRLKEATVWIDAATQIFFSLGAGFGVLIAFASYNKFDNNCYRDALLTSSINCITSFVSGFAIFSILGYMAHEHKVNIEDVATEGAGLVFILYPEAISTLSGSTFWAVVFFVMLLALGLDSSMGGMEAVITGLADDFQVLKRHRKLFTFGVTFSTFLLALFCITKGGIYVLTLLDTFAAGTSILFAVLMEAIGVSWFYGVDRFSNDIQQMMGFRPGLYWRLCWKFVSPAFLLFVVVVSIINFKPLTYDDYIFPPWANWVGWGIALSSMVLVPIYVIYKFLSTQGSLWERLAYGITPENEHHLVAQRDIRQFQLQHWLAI
Experiment [2] deals with Sodium-dependent serotonin transporter (Homo sapiens, UniProt P31645). The experiment can be described thus: Displacement of [3H]paroxetine from human 5HTT.
Chain of Sodium-dependent serotonin transporter (P31645 whole entry): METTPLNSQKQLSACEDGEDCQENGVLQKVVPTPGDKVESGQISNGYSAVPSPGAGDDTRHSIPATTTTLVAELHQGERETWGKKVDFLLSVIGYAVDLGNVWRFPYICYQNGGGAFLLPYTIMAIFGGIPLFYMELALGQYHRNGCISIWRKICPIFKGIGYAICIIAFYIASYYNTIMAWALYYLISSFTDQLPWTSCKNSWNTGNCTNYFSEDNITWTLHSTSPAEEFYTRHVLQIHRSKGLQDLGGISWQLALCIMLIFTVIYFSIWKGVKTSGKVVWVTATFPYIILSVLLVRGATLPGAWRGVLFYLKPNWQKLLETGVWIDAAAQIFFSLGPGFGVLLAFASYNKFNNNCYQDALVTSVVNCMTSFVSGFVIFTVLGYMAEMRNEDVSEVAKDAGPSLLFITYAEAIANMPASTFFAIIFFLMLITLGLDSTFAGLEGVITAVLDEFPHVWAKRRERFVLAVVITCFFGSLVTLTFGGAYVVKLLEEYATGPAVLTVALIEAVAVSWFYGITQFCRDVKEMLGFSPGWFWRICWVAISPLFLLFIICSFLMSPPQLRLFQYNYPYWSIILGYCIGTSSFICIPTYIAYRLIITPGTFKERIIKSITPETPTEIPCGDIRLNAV
Experiment [3] concerns the target Sodium-dependent dopamine transporter (Homo sapiens, UniProt Q01959). Put plainly: Displacement of [3H]WIN-35428 from human DAT.

Where only a bound is given, the exact number is not on record here.

Chain of Sodium-dependent dopamine transporter (Q01959 whole entry): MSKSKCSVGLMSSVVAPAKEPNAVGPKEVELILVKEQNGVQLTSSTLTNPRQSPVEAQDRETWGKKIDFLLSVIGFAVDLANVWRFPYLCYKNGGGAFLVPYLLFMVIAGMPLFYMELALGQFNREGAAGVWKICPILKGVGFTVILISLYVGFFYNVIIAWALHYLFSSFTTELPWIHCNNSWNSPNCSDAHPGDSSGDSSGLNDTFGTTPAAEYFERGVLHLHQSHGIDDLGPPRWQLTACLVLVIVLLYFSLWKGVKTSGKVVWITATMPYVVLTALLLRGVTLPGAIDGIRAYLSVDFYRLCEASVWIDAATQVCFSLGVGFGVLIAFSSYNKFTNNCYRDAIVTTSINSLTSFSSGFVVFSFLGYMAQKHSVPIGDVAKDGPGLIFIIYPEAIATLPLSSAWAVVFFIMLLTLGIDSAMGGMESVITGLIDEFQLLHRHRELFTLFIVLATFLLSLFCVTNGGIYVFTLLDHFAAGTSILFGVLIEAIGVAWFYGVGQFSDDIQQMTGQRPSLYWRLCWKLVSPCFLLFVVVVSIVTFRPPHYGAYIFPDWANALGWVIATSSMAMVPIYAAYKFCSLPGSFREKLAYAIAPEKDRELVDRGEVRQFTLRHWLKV

One may read the IC50 as the concentration that inhibits the measured activity by half. Read a high IC50 as weaker potency in that assay. By Ki is commonly meant the dissociation constant of the complex between target and ligand, obtained from inhibition or displacement. Turning to `CN1C2CCC1C1COC(=O)CCSCCC(=O)Nc3ccc(cc3)C1C2` (stereo not given), the IC50 in experiment [1] stood at 990 nM; in experiment [2], 6730 nM; in experiment [3], 170 nM. In addition, the Ki came to 500 nM in experiment [1] and 1650 nM in experiment [2].
On to `CN1C2CCC1C1COC(=O)CCCCCCC(=O)Nc3ccc(cc3)C1C2` (stereo not given), for which the half-inhibitory concentration (IC50) in experiment [1] was 3040 nM; in experiment [2], 2090 nM; in experiment [3] it was 70 nM. Besides, the inhibition constant Ki in experiment [1] came to 1520 nM; in experiment [2], 513 nM.
On the same counts, the results for `CN1CCCCCCCCCC(=O)OCC2C(CC3CCC2N3C)c2ccc1cc2` (stereo not given) are 2130 nM, 380 nM, 150 nM, 1060 nM and 94 nM.
Consider `CN1C2CCC1C1COC(=O)CCCCCCCCCCC(=O)Nc3ccc(cc3)C1C2` (stereo not given), for which the half-maximal inhibitory concentration (IC50) in experiment [1] amounted to 2320 nM; in experiment [2], 1200 nM; in experiment [3], 390 nM. Also, the Ki in experiment [1] stood at 1160 nM; in experiment [2] it was 290 nM.
For `CN1C2CCC1C1COC(=O)CCC(=O)CCC(=O)Nc3ccc(cc3)C1C2` (stereo not given), in that order: 1400 nM, 5010 nM, 160 nM, 710 nM and 1230 nM.
Consider `CN1CCCCCCCCCCCC(=O)OCC2C(CC3CCC2N3C)c2ccc1cc2` (stereo not given), for which the inhibition constant (Ki) in experiment [1] is more than 2000 nM; in experiment [2] it was 110 nM. Also, the IC50 was determined as 450 nM in experiment [2] and 490 nM in experiment [3].
Regarding `CN1C2CCC1C1COC(=O)CCC3(CCC(=O)Nc4ccc(cc4)C1C2)c1ccccc1-c1ccccc13` (stereo not given), the figures for the IC50 in experiment [1], in experiment [2] and in experiment [3] were 980 nM, more than 2000 nM and 290 nM, respectively. Further, the Ki in experiment [1] was found to be 490 nM.
For `CN1C2CCC1C1COC(=O)CCCCCCCCC(=O)Nc3ccc(cc3)C1C2` (stereo not given), the IC50 came out at 2800 nM in experiment [1], 7.8 nM in experiment [2] and 130 nM in experiment [3]. Further, the Ki amounted to 1400 nM in experiment [1] and 1.9 nM in experiment [2].
On to `CN1C2CCC1C1COC(=O)Cc3ccc(cc3)CC(=O)Nc3ccc(cc3)C1C2` (stereo not given), for which the inhibition constant (Ki) in experiment [1] and in experiment [2] was more than 2000 nM each time. In addition, the IC50 in experiment [3] is more than 2000 nM.
As for `CN1C(=O)CCCCCCCCC(=O)OCC2C(CC3CCC2N3C)c2ccc1cc2` (stereo not given), the Ki in experiment [1] and in experiment [2] was more than 2000 nM throughout. Also, the 50% inhibitory concentration (IC50) in experiment [3] was determined as 1920 nM.
As to `CN1C2CCC1C1COC(=O)CCCCCC(=O)Nc3ccc(cc3)C1C2` (stereo not given), the values for the IC50 in experiment [1], in experiment [2] and in experiment [3] were 40 nM, 200 nM and 3.8 nM, respectively. In addition, the figures for the Ki in experiment [1] and in experiment [2] were 20 nM and 50 nM, respectively.
As for `CN1C2CCC1C1COC(=O)CCCCCCCC(=O)Nc3ccc(cc3)C1C2` (stereo not given), the Ki in experiment [1] and in experiment [2] was more than 2000 nM in each case. Also, the IC50 in experiment [3] was determined as 410 nM.
In experiment [1], `CN1C2CCC1C1COC(=O)CCCCC(=O)Nc3ccc(cc3)C1C2` (stereo not given) came in with an inhibition constant (Ki) of more than 2000 nM. Further, the figures for the IC50 in experiment [2] and in experiment [3] were more than 2000 nM and 890 nM, respectively.
